Assay results as given in ChEMBL document CHEMBL3734751, “Discovery of novel, potent and low-toxicity angiotensin II receptor type 1 (AT1) blockers: Design, synthesis and biological evaluation of 6-substituted aminocarbonyl benzimidazoles with a chiral center” (Eur J Med Chem, 2015).
Changes are numbered by the printed parent chain. Active and inactive are the calls of the source. No cut-off for these calls is given here.

How the values were obtained:
[1] = Volume of distribution at steady state in Sprague-Dawley rat at 3 mg/kg, iv by LC-MS/MS; assay type: ADME, organism-based; conditions: in vivo, read-out: Vdss
[2] = tested on: Mus musculus; assay: Hepatotoxicity in Kunming mouse assessed as serum ALT level at 2 g/kg by automatic biochemical analyser (reference value: 44.33 +/- 6.50 U/T); assay type: toxicity, organism-based; conditions: in vivo, 2000 mg/kg
[3] = Mutagenicity in Kunming mouse bone marrow cells assessed as micronucleated polychromatic erythrocytes level at 2 g/kg by May-Grunwald-Giemsan staining-based microscopic analysis (reference value: 3.2 +/- 1.62 ); assay type: toxicity, cell-based, Bone marrow cell; conditions: in vivo, 2000 mg/kg
[4] = tested on: Mus musculus; assay: Renal toxicity in Kunming mouse assessed as serum urea level at 0.5 g/kg by automatic biochemical analyser (reference value: 9.95 +/- 1.39 mmol); assay type: organism-based; conditions: in vivo, 500 mg/kg
[5] = tested on: Mus musculus; assay: Renal toxicity in Kunming mouse assessed as serum creatinin level at 0.5 g/kg by automatic biochemical analyser (reference value: 13.78 +/- 2.64 umol/L); assay type: organism-based; conditions: in vivo, 500 mg/kg
[6] = molecular target: T1, Type-1 angiotensin II receptor (Oryctolagus cuniculus, UniProt P34976); assay: Antagonist activity against AT1 receptor in Japanese White rabbit aortic strips assessed as reduction in angiotension-2-induced contractile response after 60 mins by Schild's plot analysis; conditions: read-out: pA2 (converted)
T1 sequence (P34976 whole entry): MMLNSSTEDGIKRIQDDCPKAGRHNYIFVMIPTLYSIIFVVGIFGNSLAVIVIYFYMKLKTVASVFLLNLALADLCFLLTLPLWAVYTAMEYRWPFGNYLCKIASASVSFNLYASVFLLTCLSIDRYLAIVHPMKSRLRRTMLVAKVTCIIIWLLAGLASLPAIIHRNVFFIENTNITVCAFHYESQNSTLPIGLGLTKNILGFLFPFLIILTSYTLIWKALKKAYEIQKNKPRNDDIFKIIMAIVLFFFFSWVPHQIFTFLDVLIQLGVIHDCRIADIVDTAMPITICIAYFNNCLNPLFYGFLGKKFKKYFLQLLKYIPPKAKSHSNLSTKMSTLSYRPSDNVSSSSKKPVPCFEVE

[7] = tested on: Mus musculus; assay: Hepatotoxicity in Kunming mouse assessed as serum AST level at 1 g/kg by automatic biochemical analyser (reference value: 133.44 +/- 25.05 U/T); assay type: toxicity, organism-based; conditions: in vivo, 1000 mg/kg
[8] = tested on: Mus musculus; assay: Hepatotoxicity in Kunming mouse assessed as serum ALT level at 0.5 g/kg by automatic biochemical analyser (reference value: 44.33 +/- 6.50 U/T); assay type: toxicity, organism-based; conditions: in vivo, 500 mg/kg
[9] = tested on: Mus musculus; assay: Renal toxicity in Kunming mouse assessed as serum urea level at 2 g/kg by automatic biochemical analyser (reference value: 9.95 +/- 1.39 mmol); assay type: organism-based; conditions: in vivo, 2000 mg/kg
[10] = Tmax in Sprague-Dawley rat at 30 mg/kg, po by LC-MS/MS; assay type: ADME, organism-based; conditions: in vivo
[11] = tested on: Mus musculus; assay: Renal toxicity in Kunming mouse assessed as serum creatinin level at 2 g/kg by automatic biochemical analyser (reference value: 13.78 +/- 2.64 umol/L); assay type: organism-based; conditions: in vivo, 2000 mg/kg
[12] = Toxicity in Kunming mouse at 3 g/kg, po assessed as mortality after 2 weeks; assay type: organism-based; conditions: in vivo, 3000 mg/kg
[13] = Oral bioavailability in Sprague-Dawley rat at 30 mg/kg, by LC-MS/MS; assay type: ADME, organism-based; conditions: in vivo
[14] = tested on: Rattus norvegicus; assay: Antihypertensive activity in spontaneously hypertensive rat model assessed as decrease in systolic and diastolic blood pressure at 30 mg/kg, po administered daily for 14 days and measured after 2 days of drug withdrawal by tail-cuff plethysmography; assay type: functional, organism-based
[15] = Terminal half-life in Sprague-Dawley rat at 3 mg/kg, iv by LC-MS/MS; assay type: ADME, organism-based; conditions: in vivo, read-out: beta t1/2 (converted)
[16] = Toxicity in Kunming mouse at 4 g/kg, po assessed as mortality after 2 weeks; assay type: organism-based; conditions: in vivo, 4000 mg/kg
[17] = Mutagenicity in Kunming mouse bone marrow cells assessed as ratio of polychromatic erythrocyte level to norchromatic erythrocyte level at 0.5 g/kg by May-Grunwald-Giemsa staining-based microscopic analysis (reference value: 1.32 +/- 0.22 ); assay type: toxicity, cell-based, Bone marrow cell; conditions: in vivo, 500 mg/kg
[18] = Mutagenicity in Kunming mouse bone marrow cells assessed as micronucleated polychromatic erythrocytes level at 1 g/kg by May-Grunwald-Giemsa staining-based microscopic analysis (reference value: 3.2 +/- 1.62 ); assay type: toxicity, cell-based, Bone marrow cell; conditions: in vivo, 1000 mg/kg
[19] = tested on: Mus musculus; assay: Hepatotoxicity in Kunming mouse assessed as serum AST level at 0.5 g/kg by automatic biochemical analyser (reference value: 133.44 +/- 25.05 U/T); assay type: toxicity, organism-based; conditions: in vivo, 500 mg/kg
[20] = tested on: Rattus norvegicus; assay: AUC in Sprague-Dawley rat at 3 mg/kg, iv by LC-MS/MS; assay type: ADME, organism-based; conditions: in vivo
[21] = tested on: Mus musculus; assay: Hepatotoxicity in Kunming mouse assessed as serum AST level at 2 g/kg by automatic biochemical analyser (reference value: 133.44 +/- […] U/T); assay type: toxicity, organism-based; conditions: in vivo, 2000 mg/kg
[22] = AUC in Sprague-Dawley rat at 30 mg/kg, po by LC-MS/MS; assay type: ADME, organism-based; conditions: in vivo
[23] = tested on: Mus musculus; assay: Renal toxicity in Kunming mouse assessed as serum urea level at 1 g/kg by automatic biochemical analyser (reference value: 9.95 +/- 1.39 mmol); assay type: organism-based; conditions: in vivo, 1000 mg/kg
[24] = Mutagenicity in Kunming mouse bone marrow cells assessed as ratio of polychromatic erythrocyte level to norchromatic erythrocyte level at 1 g/kg by May-Grunwald-Giemsa staining-based microscopic analysis (reference value: 1.32 +/- 0.22 ); assay type: toxicity, cell-based, Bone marrow cell; conditions: in vivo, 1000 mg/kg
[25] = molecular target: T2, Type-1 angiotensin II receptor (Homo sapiens, UniProt P30556); assay: Displacement of [125I]Sar1Ile8-Ang2 from human AT1 receptor expressed in CHO-K1 cell membranes after 180 mins
T2 sequence (P30556 whole entry): T1 sequence (P34976 whole entry) with M2I, A49V, V254I, V270I, H272R, K311R, S349T, V353A

[26] = Toxicity in orally dosed Kunming mouse assessed as mortality after 2 weeks; assay type: organism-based; conditions: in vivo, po
[27] = tested on: Rattus norvegicus; assay: Antihypertensive activity in spontaneously hypertensive rat model assessed as decrease in heart rate at 30 mg/kg, po administered daily for 14 days by tail-cuff plethysmography; assay type: functional, organism-based
[28] = Toxicity in Kunming mouse at 2 g/kg, po assessed as mortality after 2 weeks; assay type: organism-based; conditions: in vivo, 2000 mg/kg
[29] = Terminal half-life in Sprague-Dawley rat at 30 mg/kg, po by LC-MS/MS; assay type: ADME, organism-based; conditions: in vivo, read-out: beta t1/2 (converted)
[30] = Mutagenicity in Kunming mouse bone marrow cells assessed as micronucleated polychromatic erythrocytes level at 0.5 g/kg by May-Grunwald-Giemsa staining-based microscopic analysis (reference value: 3.2 +/- 1.62 ); assay type: toxicity, cell-based, Bone marrow cell; conditions: in vivo, 500 mg/kg
[31] = Cmax in Sprague-Dawley rat at 30 mg/kg, po by LC-MS/MS; assay type: ADME, organism-based; design: dose 30 mg/kg, route oral; conditions: in vivo
[32] = tested on: Rattus norvegicus; assay: Antihypertensive activity in spontaneously hypertensive rat model assessed as decrease in systolic and diastolic blood pressure at 30 mg/kg, po administered daily for 14 days by tail-cuff plethysmography; assay type: functional, organism-based
[33] = tested on: Mus musculus; assay: Renal toxicity in Kunming mouse assessed as serum creatinin level at 1 g/kg by automatic biochemical analyser (reference value: 13.78 +/- 2.64 umol/L); assay type: organism-based; conditions: in vivo, 1000 mg/kg
[34] = Mutagenicity in Kunming mouse bone marrow cells assessed as ratio of polychromatic erythrocyte level to norchromatic erythrocyte level at 2 g/kg by May-Grunwald-Giemsa staining-based microscopic analysis (reference value: 1.32 +/- 0.22 ); assay type: toxicity, cell-based, Bone marrow cell; conditions: in vivo, 2000 mg/kg
[35] = tested on: Rattus norvegicus; assay: Antihypertensive activity in spontaneously hypertensive rat model assessed as decrease in heart rate at 30 mg/kg, po administered daily for 14 days and measured after 2 days of drug withdrawal by tail-cuff plethysmography; assay type: functional, organism-based
[36] = tested on: Rattus norvegicus; assay: Antihypertensive activity in po dosed spontaneously hypertensive rat assessed as decrease in mean blood pressure by tail-cuff plethysmography; assay type: functional, organism-based
[37] = Toxicity in Kunming mouse at 5 g/kg, po assessed as mortality after 2 weeks; assay type: organism-based; conditions: in vivo, 5000 mg/kg
[38] = tested on: Mus musculus; assay: Hepatotoxicity in Kunming mouse assessed as serum ALT level at 1 g/kg by automatic biochemical analyser (reference value: 44.33 +/- 6.50 U/T); assay type: toxicity, organism-based; conditions: in vivo, 1000 mg/kg

Work on `CCCc1nc2c(C)cc(C(=O)NC[C@H](C)c3ccccc3)cc2n1Cc1ccc(-c2ccccc2-c2nnn[nH]2)cc1` yielded a Vd [1] of 11 L/kg, an Activity [2] of 91.4 U/L and an Activity [3] of 4.3. It also gave an Activity [4] of 8.71 mM, an Activity [5] of 10.3 µmol/L and a Kb [6] of 1.78 nM. It also gave an Activity [7] of 141 U/L, an Activity [8] of 42.7 U/L and an Activity [9] of 11.2 mM. It also gave a Tmax [10] of 45 min, an Activity [11] of 6.14 µmol/L and a mortality at 336 h [12] of 30%. For the same molecule, the bioavailability [13] was 42%, the Activity [14] was “Active” and the half-life [15] was 756 min. For the same molecule, the mortality at 336 h [16] was 50%, the Ratio [17] was 1.34 and the Activity [18] was 3.8. For the same molecule, the Activity [19] was 126 U/L, the AUC [20] was 12.2 µg·h/mL and the Activity [21] was 217 U/L. The AUC [22] was 51500 ng·h/mL, the Activity [23] was 10 mM and the Ratio [24] was 1.28. The IC50 [25] was 1.1 nM, the LD50 at 336 h [26] was 3640 mg/kg and the Activity [27] was “Active”. For the same molecule, the mortality at 336 h [28] was 0%, the half-life [29] was 780 min and the Activity [30] was 3. For the same molecule, the Cmax [31] was 14600 ng/mL, the Activity [32] was “Active” and the Activity [33] was 8.3 µmol/L. The Ratio [34] was 1.64, the Activity [35] was “Active” and the Activity [36] was “Dose-dependent effect”. It also gave a mortality at 336 h [37] of 90% and an Activity [38] of 52.6 U/L.
